Laboratory results from patent US8829194B2, “Crystalline forms of the sodium salt of (4-{4-[5-(6-trifluoromethyl-pyridin-3-ylamino)-pyridin-2-yl]-phenyl}-cyclohexyl)-acetic acid” (Novartis AG, priority 2010, dated 2014).

How the values were obtained:
Assay type in all cases: physicochemical
[1] = Water loss as a function of temperature by TG/DTA (loss on drying, thermal transitions); conditions: for LOD (thermal transitions): DTA signals, temperature at which the water is lost; for Loss On Drying (LOD) (%): total water loss by thermogravimetry, rt-295° C., 10°/min
Text: (ii) Thermogravimetric/Differential Thermal Analysis (TG/DTA) […]
The data listed below show the total water loss (LOD by thermogravimetry (TG)) and thermal transitions (DTA signals) show the temperature at which the water is lost.

[2] = Physical stability of the crystalline forms (relative humidity, absorption-desorption isotherm FIG. 1, temperature, storage); conditions: absorption-desorption isotherm, FIG. 1
[3] = Humidity microbalance analysis (VTI), moisture sorption at 25° C.; conditions: for hygroscopicity / moisture uptake in words: variations in humidity
Text: Thus, Modification C retains a stable weight from 0% relative humidity to 80% relative humidity while Modification A loses water with decreasing humidity and gains moisture with increasing humidity. With Modification C, a re-hydration step and the possible variability in water content between batches may thus be eliminated.
Modification N is particularly suitable for industrial scale-up. It is a crystalline anhydrous form.
Modification O is particularly suitable for industrial scale-up. It is a crystalline anhydrous form.

SMILES: O=C([O-])C[C@H]1CC[C@H](c2ccc(-c3ccc(Nc4ccc(C(F)(F)F)nc4)cn3)cc2)CC1.[Na+] [Modification L, sodium salt of (4-{4-[5-(6-trifluoromethyl-pyridin-3-ylamino)-pyridin-2-yl]-phenyl}-cyclohexyl)-acetic acid]
- LOD (thermal transitions) ([1]; listed as L): 65 °C
- Loss On Drying (LOD) (%) ([1]; listed as L): 14.9%

SMILES: O=C([O-])C[C@H]1CC[C@H](c2ccc(-c3ccc(Nc4ccc(C(F)(F)F)nc4)cn3)cc2)CC1.[Na+] [Modification B, sodium salt of (4-{4-[5-(6-trifluoromethyl-pyridin-3-ylamino)-pyridin-2-yl]-phenyl}-cyclohexyl)-acetic acid]
- Loss On Drying (LOD) (%) ([1]; listed as B): 6.9%

SMILES: O=C([O-])C[C@H]1CC[C@H](c2ccc(-c3ccc(Nc4ccc(C(F)(F)F)nc4)cn3)cc2)CC1.[Na+] [Modification P, sodium salt of (4-{4-[5-(6-trifluoromethyl-pyridin-3-ylamino)-pyridin-2-yl]-phenyl}-cyclohexyl)-acetic acid]
- LOD (thermal transitions) ([1]; listed as P): 65 °C
- Loss On Drying (LOD) (%) ([1]; listed as P): 10.9%

SMILES: O=C([O-])C[C@H]1CC[C@H](c2ccc(-c3ccc(Nc4ccc(C(F)(F)F)nc4)cn3)cc2)CC1.[Na+] [Modification M, sodium salt of (4-{4-[5-(6-trifluoromethyl-pyridin-3-ylamino)-pyridin-2-yl]-phenyl}-cyclohexyl)-acetic acid]
- relative humidity range in which the form is stable [2]: below 10 % relative humidity
- LOD (thermal transitions) ([1]; listed as M): None
- Loss On Drying (LOD) (%) ([1]; listed as M): 0%

SMILES: O=C([O-])C[C@H]1CC[C@H](c2ccc(-c3ccc(Nc4ccc(C(F)(F)F)nc4)cn3)cc2)CC1.[Na+] [Modification O, sodium salt of (4-{4-[5-(6-trifluoromethyl-pyridin-3-ylamino)-pyridin-2-yl]-phenyl}-cyclohexyl)-acetic acid]
- LOD (thermal transitions) [1]: None
- Loss On Drying (LOD) (%) [1]: 1.2%
- relative humidity at which moisture gain starts / becomes significant [3]: 80 % relative humidity
- Mass uptake (% water absorbed) ([3]; 0 % residual humidity): 0.0%
- Mass uptake (% water absorbed) ([3]; 10 % residual humidity): 0.0%
- Mass uptake (% water absorbed) ([3]; 50 % residual humidity): −0.5%
- Mass uptake (% water absorbed) ([3]; 60 % residual humidity): −0.5%
- Mass uptake (% water absorbed) ([3]; 70 % residual humidity): −0.5%
- Mass uptake (% water absorbed) ([3]; 79 % residual humidity): −0.4%
- Mass uptake (% water absorbed) ([3]; 90 % residual humidity): 4.3%
- Mass uptake (% water absorbed) ([3]; 95 % residual humidity): 13.3%
- hygroscopicity / moisture uptake in words [3]: low hygroscopicity

SMILES: O=C([O-])C[C@H]1CC[C@H](c2ccc(-c3ccc(Nc4ccc(C(F)(F)F)nc4)cn3)cc2)CC1.[Na+] [Modification I, sodium salt of (4-{4-[5-(6-trifluoromethyl-pyridin-3-ylamino)-pyridin-2-yl]-phenyl}-cyclohexyl)-acetic acid]
- Loss On Drying (LOD) (%) ([1]; listed as I): 9.5%

SMILES: O=C([O-])C[C@H]1CC[C@H](c2ccc(-c3ccc(Nc4ccc(C(F)(F)F)nc4)cn3)cc2)CC1.[Na+] [Modification D, sodium salt of (4-{4-[5-(6-trifluoromethyl-pyridin-3-ylamino)-pyridin-2-yl]-phenyl}-cyclohexyl)-acetic acid]
- LOD (thermal transitions) ([1]; listed as D): 84.5 °C
- Loss On Drying (LOD) (%) ([1]; listed as D): 12.4%

SMILES: O=C([O-])C[C@H]1CC[C@H](c2ccc(-c3ccc(Nc4ccc(C(F)(F)F)nc4)cn3)cc2)CC1.[Na+] [Modification F, sodium salt of (4-{4-[5-(6-trifluoromethyl-pyridin-3-ylamino)-pyridin-2-yl]-phenyl}-cyclohexyl)-acetic acid]
- LOD (thermal transitions) ([1]; listed as F): 90 °C
- Loss On Drying (LOD) (%) ([1]; listed as F): 3.5%

SMILES: O=C([O-])C[C@H]1CC[C@H](c2ccc(-c3ccc(Nc4ccc(C(F)(F)F)nc4)cn3)cc2)CC1.[Na+] [Modification N, sodium salt of (4-{4-[5-(6-trifluoromethyl-pyridin-3-ylamino)-pyridin-2-yl]-phenyl}-cyclohexyl)-acetic acid]
- LOD (thermal transitions) [1]: None
- Loss On Drying (LOD) (%) [1]: 0.3%
- relative humidity at which moisture gain starts / becomes significant [3]: 70 % relative humidity
- Mass uptake (% water absorbed) ([3]; 0 % residual humidity): 0.0%
- Mass uptake (% water absorbed) ([3]; 10 % residual humidity): 0.1%
- Mass uptake (% water absorbed) ([3]; 50 % residual humidity): 0.7%
- Mass uptake (% water absorbed) ([3]; 60 % residual humidity): 0.9%
- Mass uptake (% water absorbed) ([3]; 70 % residual humidity): 1.0%
- Mass uptake (% water absorbed) ([3]; 79 % residual humidity): 3.7%
- Mass uptake (% water absorbed) ([3]; 90 % residual humidity): 18.2%
- Mass uptake (% water absorbed) ([3]; 95 % residual humidity): 19.1%
- hygroscopicity / moisture uptake in words [3]: low hygroscopicity

SMILES: O=C([O-])C[C@H]1CC[C@H](c2ccc(-c3ccc(Nc4ccc(C(F)(F)F)nc4)cn3)cc2)CC1.[Na+] [Modification J, sodium salt of (4-{4-[5-(6-trifluoromethyl-pyridin-3-ylamino)-pyridin-2-yl]-phenyl}-cyclohexyl)-acetic acid]
- Loss On Drying (LOD) (%) ([1]; listed as J): 3.1%

SMILES: O=C([O-])C[C@H]1CC[C@H](c2ccc(-c3ccc(Nc4ccc(C(F)(F)F)nc4)cn3)cc2)CC1.[Na+] [Modification H, sodium salt of (4-{4-[5-(6-trifluoromethyl-pyridin-3-ylamino)-pyridin-2-yl]-phenyl}-cyclohexyl)-acetic acid]
- LOD (thermal transitions) ([1]; listed as H): 68.3 °C
- Loss On Drying (LOD) (%) ([1]; listed as H): 3%

SMILES: O=C([O-])C[C@H]1CC[C@H](c2ccc(-c3ccc(Nc4ccc(C(F)(F)F)nc4)cn3)cc2)CC1.[Na+] [Modification E, sodium salt of (4-{4-[5-(6-trifluoromethyl-pyridin-3-ylamino)-pyridin-2-yl]-phenyl}-cyclohexyl)-acetic acid]
- Loss On Drying (LOD) (%) ([1]; listed as E): 9.5%

SMILES: O=C([O-])C[C@H]1CC[C@H](c2ccc(-c3ccc(Nc4ccc(C(F)(F)F)nc4)cn3)cc2)CC1.[Na+] [Modification G, sodium salt of (4-{4-[5-(6-trifluoromethyl-pyridin-3-ylamino)-pyridin-2-yl]-phenyl}-cyclohexyl)-acetic acid]
- Loss On Drying (LOD) (%) ([1]; listed as G): 11.7%
